In brackets after ≈: the same amount, converted by molar mass.
Key:
Pyricularia oryzae P-18 = assay: microbe, parasite or virus in culture; type: cell-based; conditions: P18, read-out: Minimum Inhibitory Concentration (MIC)
[1] = test system: Candida tropicalis IFO 0006; assay: Antimicrobial activity; type: cell-based; conditions: IFO0006, TSA medium containing 1% glucose, read-out: Minimum Inhibitory Concentration (MIC)
[2] = test system: Bacillus subtilis PCI 219; assay: Antimicrobial activity; type: cell-based; conditions: PCI219, TSA medium containing 1% glucose, read-out: Minimum Inhibitory Concentration (MIC)
Escherichia coli K 12 = assay: Antimicrobial activity; type: cell-based; conditions: K12, TSA medium containing 1% glucose, read-out: Minimum Inhibitory Concentration (MIC)
[3] = test system: Staphylococcus aureus FDA 209 P; assay: Antimicrobial activity; type: cell-based; conditions: FDA209, TSA medium containing 1% glucose, read-out: Minimum Inhibitory Concentration (MIC)
[4] = test system: Saccharomyces cerevisiae IFO 0209; assay: Antimicrobial activity; type: cell-based; conditions: IFO0209, TSA medium containing 1% glucose, read-out: Minimum Inhibitory Concentration (MIC)
Bacillus cereus IFO 3514 = assay: Antimicrobial activity; type: cell-based; conditions: IFO3514, TSA medium containing 1% glucose, read-out: Minimum Inhibitory Concentration (MIC)
[5] = test system: Cryptococcus neoformans IFO 0410; assay: Antimicrobial activity; type: cell-based; conditions: IFO0410, TSA medium containing 1% glucose, read-out: Minimum Inhibitory Concentration (MIC)
Solubility = type: physicochemical
[6] = test system: synthesis of fatty acid (rat liver homogenates); assay: Inhibitory activity of the synthesis of fatty acid (rat liver homogenates, 1-14C-acetate); type: biochemical, rat (SD-strain); conditions: vs. no addition of the inhibiting agent, 37° C., 60 min
Method: Determination of the Inhibitory activity of the synthesis of fatty acid was conducted by using homogenates prepared from rat livers. Preparation of the rat liver homogenates, composition of the reaction solution for determination of inhibitory activity and method of the determination were in accordance with the method by J. Iliffe et al. described on "Biochemical Journal" 91, 369 (1964) and the method by T. Kariya et al. described on "Biochemical and Biophysical Research Communications" 80, 1022 (1978). More specifically, SD-strain male rats (6-week old) had been fasted for 2 days and then refed for 24 hours. They were killed by blood letting. The livers were then removed immediately, to which was added a 0.25M sucrose solution containing 2 mM EDTA, 5 mM nicotinamide and 1 mM 2-mercaptoethanol so that the final volume of the solution may be 4 ml relative to 1 g of the wet weight of the livers. […]
Into a 10 ml flask containing 1.85 ml of a reaction mixture consisting of 45 mM of tris-HCl buffer (pH 7.4), 10 mM of KHCO3, 4 mM of MgCl2, 45 mM of KCl, 5 mM of K2 HPO4, 15 mM of potassium citrate, 1 mM of NADP, 2 mM of ATP, 5 mM of glucose-6-phosphate, 0.4 mM of coenzyme A, 5 mM of dithiothreitol and 0.5 ml of the enzyle solution, was blown a mixture gas (95% O2 :5% CO2). […] The radio-activity extracted into the petroleum ether layer was measured.

Candida utilis IFO 0619 = assay: Antimicrobial activity; type: cell-based; conditions: Williopsis jadinii, IFO0619, TSA medium containing 1% glucose, read-out: Minimum Inhibitory Concentration (MIC)
[7] = test system: Aspergillus niger IFO 4066; assay: Antimicrobial activity; type: cell-based; conditions: IFO4066, TSA medium containing 1% glucose, read-out: Minimum Inhibitory Concentration (MIC)
[8] = test system: Trichophyton mentagrophytes IFO 7522; assay: Antimicrobial activity; type: cell-based; conditions: IFO7522, TSA medium containing 1% glucose, read-out: Minimum Inhibitory Concentration (MIC)
[9] = Acute toxicity, single intraperitoneal dose in mice; conditions: mouse, in vivo, ip
[10] = test system: Candida parapsilosis IFO 1396; assay: Antimicrobial activity; type: cell-based; conditions: Lodderomyces parapsilosis, IFO1396, TSA medium containing 1% glucose, read-out: Minimum Inhibitory Concentration (MIC)
[11] = test system: Proteus vulgaris IFO 3045; assay: Antimicrobial activity; type: cell-based; conditions: IFO3045, TSA medium containing 1% glucose, read-out: Minimum Inhibitory Concentration (MIC)
[12] = test system: Penicillium chrysogenum IFO 4626; assay: Antimicrobial activity; type: cell-based; conditions: IFO4626, TSA medium containing 1% glucose, read-out: Minimum Inhibitory Concentration (MIC)
[13] = test system: Candida albicans IFO 0583; assay: Antimicrobial activity; type: cell-based; conditions: IFO0583, TSA medium containing 1% glucose, read-out: Minimum Inhibitory Concentration (MIC)
[14] = test system: Pseudomonas aeruginosa IFO 3080; assay: Antimicrobial activity; type: cell-based; conditions: IFO3080, TSA medium containing 1% glucose, read-out: Minimum Inhibitory Concentration (MIC)
[15] = test system: Trichophyton rubrum IFO 5467; assay: Antimicrobial activity; type: cell-based; conditions: IFO5467, TSA medium containing 1% glucose, read-out: Minimum Inhibitory Concentration (MIC)
[16] = test system: Rhodotorula rubra IFO 0907; assay: Antimicrobial activity; type: cell-based; conditions: IFO0907, TSA medium containing 1% glucose, read-out: Minimum Inhibitory Concentration (MIC)
[17] = test system: Candida parakrusei IFO 0640; assay: Antimicrobial activity; type: cell-based; conditions: IFO0640, TSA medium containing 1% glucose, read-out: Minimum Inhibitory Concentration (MIC)
Candida krusei IFO 1395 = assay: Antimicrobial activity; type: cell-based; conditions: Pichia kudriavzevii, IFO1395, TSA medium containing 1% glucose, read-out: Minimum Inhibitory Concentration (MIC)

CCC/C=C/CCC1Oc2cc[nH]c(=O)c2C=C1C (stereo not drawn) [FA-4283]
MIC (Pyricularia oryzae P-18): 3.18 µg/mL (≈ 12.3 µM) | MIC [1]: 50 µg/mL (≈ 193 µM) | MIC [2]: > 100 µg/mL | MIC (Escherichia coli K 12): > 100 µg/mL | MIC [3]: > 100 µg/mL | MIC [4]: > 100 µg/mL | MIC (Bacillus cereus IFO 3514): > 100 µg/mL | MIC [5]: 25 µg/mL (≈ 96.4 µM) | Solubility (Solubility; chloroform): readily soluble | Solubility (Solubility; diethyl ether): soluble | Solubility (Solubility; dimethyl sulfoxide): readily soluble | Solubility (Solubility; dimethyl-formamide): readily soluble | Solubility (Solubility; ethanol): readily soluble | Solubility (Solubility; ethyl acetate): soluble | Solubility (Solubility; methanol): readily soluble | Solubility (Solubility; n-hexane): sparingly soluble | Solubility (Solubility; petroleum ether): sparingly soluble | Solubility (Solubility; water): insoluble | inhibitory activity of the synthesis of fatty acid ([6]; 5×10^-4 M): 97% | inhibition of the synthesis of fatty acid ([6]; 10^-3 M): 98% | MIC (Candida utilis IFO 0619): 3.13 µg/mL (≈ 12.1 µM) | MIC [7]: > 100 µg/mL | MIC [8]: 6.25 µg/mL (≈ 24.1 µM) | LD50 [9]: ≥ 400 mg/kg | MIC [10]: > 100 µg/mL | MIC [11]: > 100 µg/mL | MIC [12]: > 100 µg/mL | MIC [13]: 3.13 µg/mL (≈ 12.1 µM) | MIC [14]: > 100 µg/mL | MIC [15]: 6.25 µg/mL (≈ 24.1 µM) | MIC [16]: 0.39 µg/mL (≈ 1.5 µM) | MIC [17]: > 100 µg/mL | MIC (Candida krusei IFO 1395): > 100 µg/mL

Source: patent publication US4803275A, “2-oxo-5-methyl-6-[4-heptene]-2H-pyrano[3,2-c]pyridine” (Takeda Chemical Industries, Ltd., priority 1986, dated 1989)
